Test results as given in article PMC6966494, “Surface Plasmon Resonance as a Tool for Ligand Binding Investigation of Engineered GPR17 Receptor, a G Protein Coupled Receptor Involved in Myelination” (Frontiers in Chemistry, 2020).

How the values were obtained:
[1] = biological target: T1, GPR17 (Rattus norvegicus, UniProt Q09QM4); assay: cAMP assay: inhibition of forskolin-stimulated adenylyl cyclase activity in primary OPCs; type: cell-based
T1 construct: oligodendrocyte precursor cells (OPCs) natively expressing GPR17; endogenous in cells; host or cells: primary OPCs from postnatal day 2 Sprague-Dawley rat cortex
Method: (§1) The pharmacological profile of Asinex 1 was assessed in three different in vitro assays of increasing complexity in oligodendrocyte precursor cells (OPCs) natively expressing GPR17. Primary rat OPCs were cultured either alone or in the presence of mouse DRG neurons, according to a well-established protocol, previously described in Fumagalli et al. ([2015]). The endogenous GPR17 ligands UDP and LTD4 were selected as reference ligands. For more details on culture preparation and analysis, see Supplementary Information.
In order to determine the intracellular cAMP levels, primary purified OPCs were treated with Asinex 1 after 6 days in culture, when GPR17 expression reaches the maximum peak. A competitive protein binding method was used following the procedure previously described (Fumagalli et al., [2015]). Briefly, culture medium was removed, and cells were incubated at 37°C for 15 min with 400 μL of Neurobasal medium in the presence of the phosphodiesterase inhibitor Ro20-1724 (20 μM). The concentration-response curve of tested ligands was assessed by measuring their ability to inhibit cAMP accumulation stimulated by 10 μM forskolin. Asinex 1 was added to cells for 15 min at graded concentration (0.1–50 nM). […] Reactions were terminated by medium removal and addition of 200 μL of 0.4 N HCl. After 30 min, lysates were neutralized with 50 μL of 4 N KOH, and the suspension was centrifuged at 800× g for 5 min. For determination of cAMP, cAMP-binding protein isolated from bovine adrenal glands was incubated with [^3H]cAMP (2 nM), 50 μL of cell lysate or cAMP standard (0–16 pmol) at 4°C for 150 min, in a total volume of 300 μL. Bound radioactivity was separated by rapid filtration through GF/C glass fiber filters and washed twice with 4 mL of 50 mM Tris-HCl, pH 7.4. Radioactivity was measured by liquid scintillation spectrometry.

[2] = tested on: GPR17; set-up: method as in earlier work; settings: literature functional assay, ref Abbracchio et al., 2006, Ciana et al., Eberini et al., 2011; cited from earlier work
[3] = tested on: OPC-DRG co-cultures; assay: Myelination assay in OPC-DRG co-cultures (Myelination Index); type: cell-based, rat OPCs, mouse DRG neurons; settings: day 4 to day 15
Method: as §1
GPR17 ligands were tested both in primary OPCs culture and in OPC/DRG co-cultures to assess their pro-differentiation and pro-myelination effect, respectively. According to the type of culture, a specific protocol of treatment was set up. For primary OPCs, cells were seeded on 13 mm poly-D,L-ornithine-coated coverslips (2 × 10^4 cells/well) and maintained for 2 days in Neurobasal medium supplemented with B27 and proliferative factors (PDGF-BB and bFGF). Afterwards, OPC differentiation was induced by removing proliferative factors and by adding T3 and pharmacological treatments with Asinex 1 (1 or 10 nM) and LTD4 (200 nM), selected as reference compound, were performed the following day. After 48 h, cells were fixed for immunocytochemistry (ICC). For OPC/DRG co-cultures, Asinex 1 (10 nM) and UDP (100 μM) were added to cultures at day 4. […]

[4] = tested on: primary OPCs; assay: OPC differentiation assay (MBP+ cells, immunocytochemistry); type: cell-based, rat; settings: 48 h
Method: as §1
GPR17 ligands were tested both in primary OPCs culture and in OPC/DRG co-cultures to assess their pro-differentiation and pro-myelination effect, respectively. According to the type of culture, a specific protocol of treatment was set up. For primary OPCs, cells were seeded on 13 mm poly-D,L-ornithine-coated coverslips (2 × 10^4 cells/well) and maintained for 2 days in Neurobasal medium supplemented with B27 and proliferative factors (PDGF-BB and bFGF). Afterwards, OPC differentiation was induced by removing proliferative factors and by adding T3 and pharmacological treatments with Asinex 1 (1 or 10 nM) and LTD4 (200 nM), selected as reference compound, were performed the following day. After 48 h, cells were fixed for immunocytochemistry (ICC). For OPC/DRG co-cultures, Asinex 1 (10 nM) and UDP (100 μM) were added to cultures at day 4. The pharmacological treatment was repeated every 2 days up to day 15, when cells were fixed for ICC analysis. For more details, see Supplementary Information.
Oligodendrocyte precursor cell cultures
Primary oligodendrocyte precursor cells (OPCs) were isolated from mixed glial cultures prepared from postnatal day 2 Sprague-Dawley rat cortex by shaking cells on an orbital shaker at 200 rpm, as previously described (Fumagalli et al., 2015). OPCs were then collected and separated from microglia by incubation for 1 h in an uncoated Petri dish. […]

T1 sequence (Q09QM4 whole entry): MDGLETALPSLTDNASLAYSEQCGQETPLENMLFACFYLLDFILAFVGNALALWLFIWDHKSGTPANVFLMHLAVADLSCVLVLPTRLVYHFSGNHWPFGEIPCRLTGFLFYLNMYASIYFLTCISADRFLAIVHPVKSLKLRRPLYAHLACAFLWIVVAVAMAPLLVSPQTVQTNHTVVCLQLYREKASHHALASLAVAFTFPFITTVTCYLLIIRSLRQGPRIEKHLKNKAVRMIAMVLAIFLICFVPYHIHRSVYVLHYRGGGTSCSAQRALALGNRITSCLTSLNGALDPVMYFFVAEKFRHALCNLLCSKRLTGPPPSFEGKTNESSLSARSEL

SMILES: CSCCNc1nc(SCCC(F)(F)F)nc2c1ncn2[C@@H]1O[C@H](COP(=O)(O)OP(=O)(O)C(Cl)(Cl)P(=O)(O)O)[C@@H](O)[C@H]1O [Cangrelor]
- IC50 ([1]; primary OPCs, constant ASN 1 concentration of 10 nM, read-out: IC50, antagonism of ASN 1-mediated inhibition of forskolin-stimulated adenylyl cyclase activity): 10.2 ± 0.8 nM
- ratio between Cangrelor and Asinex 1 affinities [2]: 7

SMILES: O=c1ccn([C@@H]2O[C@H](COP(=O)(O)OP(=O)(O)O)[C@@H](O)[C@H]2O)c(=O)[nH]1 [UDP]
- Myelination Index (control 100%) ([3]; 100 μM): 193.9 ± 32.31%

SMILES: CCCCC/C=C\C\C=C/C=C/C=C/[C@@H](SC[C@H](N)C(=O)NCC(=O)O)[C@@H](O)CCCC(=O)O [LTD4]
- percentage of MBP+ cells (control set to 100%) ([4]; 200 nM): 171.0 ± 21.70%

SMILES: COc1ccc(-n2c(SC(C)C(=O)Nc3ccccc3)nnc2-c2ccccc2OC)cc1 (stereo not drawn) [Asinex 1, 2-[[5-(2-methoxyphenyl)-4-(4-methoxyphenyl)-4H-1,2,4-triazol-3-yl]thio]-N-phenyl-propanamide]
- EC50 ([1]; primary OPCs, 10 μM forskolin, 0.1–50 nM, read-out: EC50, inhibition of forskolin-stimulated cAMP formation): 6.5 ± 0.8 nM
- pharmacological profile at GPR17 ([1]; primary rat OPCs, nucleotide binding site): full agonist
- Myelination Index (control 100%) ([3]; 10 nM): 240.3 ± 64.43%
- percentage of MBP+ cells (control set to 100%) ([4]; 1 nM): 166.5 ± 16.21%
- percentage of MBP+ cells (control set to 100%) ([4]; 10 nM): 158.3 ± 15.77%
